Assay results: PubChem BioAssay (NCI)
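The compound was tested at five concentrations on cells cultured in 96-well plates, with a 48-hour exposure period. GI50 is the concentration that inhibits growth by half. TGI marks complete inhibition of growth.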

Experiments:
Assay in all cases: NCI tumour cell line growth inhibition, 48 h
[1] = test system: COLO 205 colon
[2] = test system: HS 578T breast
[3] = test system: MALME-3M melanoma
[4] = test system: MCF7 breast
[5] = test system: NCI-H460 lung
[6] = test system: NCI/ADR-RES ovarian
[7] = test system: RPMI-8226 leukemia
[8] = test system: SF-295 CNS
[9] = test system: SK-MEL-5 melanoma
[10] = test system: SN12C renal

| SMILES | GI50 [1] | TGI [1] | GI50 [2] | TGI [2] | GI50 [3] | TGI [3] | GI50 [4] | TGI [4] | GI50 [5] | TGI [5] | GI50 [6] | TGI [6] | GI50 [7] | TGI [7] | GI50 [8] | TGI [8] | GI50 [9] | TGI [9] | GI50 [10] | TGI [10] |
| --- | --- | --- | --- | --- | --- | --- | --- | --- | --- | --- | --- | --- | --- | --- | --- | --- | --- | --- | --- | --- |
| CO[C@H](C(=O)[C@@H](O)[C@@H](C)O)[C@@H]1Cc2cc3cc(O[C@H]4C[C@@H](O[C@H]5C[C@@H](O)[C@H](O)C(C)O5)[C@H](O)C(C)O4)c(C)c(O)c3c(O)c2C(=O)[C@H]1O[C@H]1C[C@@H](O[C@H]2C[C@@H](O[C@H]3C[C@@H](OC)[C@H](O)C(C)O3)[C@@H](O)C(C)O2)C(O)(O)C(C)O1 (stereo not given in full) | 0.0833 µM | 0.89 µM | 0.118 µM | > 7.66 µM | 0.0532 µM | 2.03 µM | 0.0108 µM | > 9.61 µM | 0.033 µM | > 25 µM | > 25 µM | > 25 µM | 0.182 µM | > 11.4 µM | 0.0601 µM | > 25 µM | 0.0208 µM | 0.467 µM | 0.112 µM | > 25 µM |
| C=C(CNC(=O)Nc1ccc(-c2ccccc2)cc1)c1ccc(C(=O)Nc2ccccc2N)cc1 | > 100 µM | > 100 µM | 81.7 µM | > 100 µM | 53.7 µM | > 100 µM | > 100 µM | > 100 µM | > 100 µM | > 100 µM | 58.3 µM | > 100 µM | 20.4 µM | > 100 µM | > 100 µM | > 100 µM | 94.3 µM | > 100 µM | > 100 µM | > 100 µM |
| CC(=O)C1=C(O)C=C2Oc3c(C(=O)/C=C/c4cc(C(F)(F)F)cc(C(F)(F)F)c4)c(O)c(C)c(O)c3[C@]2(C)C1=O | 0.527 µM | 1.75 µM | 0.861 µM | 5.4 µM | 0.513 µM | 2.42 µM | 0.427 µM | 1.7 µM | 0.521 µM | 1.9 µM | 0.5 µM | 2.93 µM | 0.442 µM | 1.28 µM | 0.627 µM | 4.76 µM | 0.444 µM | 1.27 µM | 0.513 µM | 2.02 µM |
| O=P([O-])(O)OP(=O)([O-])O.[NH-][C@H]1CCCC[C@@H]1[NH-].[OH-].[OH-].[Pt+4] | 88.2 µM | > 100 µM | 36.1 µM | 93.1 µM | 14.3 µM | 38.2 µM | 32.1 µM | > 100 µM | 34.5 µM | > 100 µM | 22.7 µM | 78.1 µM | > 100 µM | > 100 µM | 19.8 µM | 44.1 µM | 42.3 µM | > 100 µM | 29.2 µM | 87.9 µM |
| O=[N+]([O-])c1ccc(Nc2ccccc2-c2ccccc2)c2nonc12 | 18.6 µM | 45.2 µM | 15.2 µM | 62.8 µM | 5.2 µM | 29.1 µM | 15.3 µM | > 72.4 µM | 13.1 µM | 42.3 µM | 13.6 µM | 34.7 µM | 6.91 µM | > 100 µM | 11.7 µM | 29.7 µM | 6 µM | 18.8 µM | 12.4 µM | 28.2 µM |
| N#Cc1cc(C#N)c(Cl)nc1N |  | > 10 µM |  | > 10 µM |  | > 10 µM |  | > 10 µM |  | > 10 µM |  | > 10 µM |  | > 10 µM |  | > 10 µM |  | > 10 µM |  | > 10 µM |
| CCCN(CCC)CCCNCc1cc(I)cc(C)c1O | 13.8 µM | 29 µM | 11.1 µM | 24.6 µM | 16.5 µM | 31.5 µM | 17.6 µM | 31.8 µM | 13.3 µM | 26 µM | 15.4 µM | 29.8 µM | 10.8 µM | 27.2 µM | 13.7 µM | 27 µM | 6.83 µM | 19.3 µM | 28.7 µM | > 100 µM |
